Experimental findings from US20250052744A1, “Dyes and Uses Thereof” (The University of Liverpool, priority 2021, published 2025) are described below.

Experiment in all cases: Qualitative dye staining on agarose pads (EVOS M7000)
Common to all, as to assay type: cell-based
Parameters in all cases: key to Relative fluorescent intensity: Very high: If the cells looked twice as big in the fluorescent channel, it was marked as having “very high” relative fluorescent intensity; High: if the cells looked bigger in the fluorescent channel, it was marked as having “high” relative fluorescent intensity; Medium: If the cells looked almost the same size in the fluorescent channel and the bright field, it was marked as having “medium” relative fluorescent intensity; Low: If the cells looked smaller in the fluorescent channel as compared to the brightfield but still the whole cell was visible, it was marked as having “low” relative fluorescent intensity; Negligible: If only a few traces of a cell was visible in the fluorescent channel, it was marked as having “negligible” relative fluorescent intensity
Holding throughout (conditions): DiSC3(5) 3 μM, SYBR Green I 10×, SYTO 13 3 μM, FM4-64 15 μM

The test system of experiment [1] is Klebsiella oxytoca.
The test system of experiment [2] is Proteus vulgaris.
For experiment [3], the system named is Klebsiella pneumoniae.
Where [4] appears, read: Table 8 sample Klebsiella oxytoca (091).
Where [5] appears, read: Table 8 sample Klebsiella oxytoca (092).
The mark [6] stands for this setting: Table 8 sample Klebsiella oxytoca (093).
The mark [7] stands for this setting: Table 8 sample Proteus vulgaris (024).
[8] abbreviates: Table 8 sample Proteus vulgaris (025).
[9] abbreviates: Table 8 sample Proteus vulgaris (026).
The mark [10] stands for this setting: Table 7 commercial strain Klebsiella pneumoniae NCTC 9633.
Setting [11] is: Table 7 commercial strain Klebsiella pneumoniae NCTC 14335.
Where [12] appears, read: Table 8 sample Klebsiella pneumoniae (094).
Where [13] appears, read: Table 8 sample Klebsiella pneumoniae (095).

With `CCCN1C(=CC=CC=Cc2sc3ccccc3[n+]2CCC)Sc2ccccc21.[I-]` [DiSC3(5), 3,3′-Dipropylthiadicarbocyanine Iodide], the “Percentage of cells stained” value in experiment [1] (setting [4]) is given as “Almost all”; in experiment [1] (setting [5]), “Almost all”; in experiment [1] (setting [6]) it was “Half”; in experiment [2] (setting [7]) it was “Almost all”; in experiment [2] (setting [8]), “Few”; in experiment [2] (setting [9]), “Almost all”. Besides, the “Percentage of cells stained” value in experiment [3] (setting [10]) is “Half”; in experiment [3] (setting [11]), “Almost all”; in experiment [3] (setting [12]), “Half”; in experiment [3] (setting [13]) it was “Almost all”. In addition, the Relative fluorescent intensity result in experiment [1] (setting [4]) was “Medium”; in experiment [1] (setting [5]), “Low”; in experiment [1] (setting [6]), “Low”; in experiment [2] (setting [7]), “Low”; in experiment [2] (setting [8]) it was “Medium”; in experiment [2] (setting [9]), “Low”. In addition, the Relative fluorescent intensity result in experiment [3] (setting [10]), in experiment [3] (setting [11]), in experiment [3] (setting [12]) and in experiment [3] (setting [13]) was “Low” in each case.
`CCN(CC)c1ccc(C=CC=CC=Cc2cc[n+](CCC[N+](CC)(CC)CC)cc2)cc1.[Br-].[Br-]` [FM 4-64, N-(3-Triethylammoniumpropyl)-4-(6-(4-(Diethylamino) Phenyl) Hexatrienyl) Pyridinium Dibromide]: the “Percentage of cells stained” value is recorded as “Few” in experiment [1] (setting [4]); “Almost all” in experiment [1] (setting [5]); “Half” in experiment [1] (setting [6]); “Few” in experiment [2] (setting [7]); “Few” in experiment [2] (setting [8]); “Few” in experiment [2] (setting [9]). Further, the “Percentage of cells stained” value in experiment [3] (setting [10]) was “Few”; in experiment [3] (setting [11]), “Half”; in experiment [3] (setting [12]), “Few”; in experiment [3] (setting [13]), “Few”. For the same compound, the Relative fluorescent intensity result is “Low” in experiment [1] (setting [4]); “Low” in experiment [1] (setting [5]); “Low” in experiment [1] (setting [6]); “Negligible” in experiment [2] (setting [7]); “Negligible” in experiment [2] (setting [8]); “Negligible” in experiment [2] (setting [9]). Further, the Relative fluorescent intensity entry in experiment [3] (setting [10]), in experiment [3] (setting [11]), in experiment [3] (setting [12]) and in experiment [3] (setting [13]) was “Low” each time.
Consider `CCCN(CCCN(C)C)c1cc(/C=C2/Sc3ccccc3N2C)c2ccccc2[n+]1-c1ccccc1` [SYBR Green I, N′,N′-dimethyl-N-[4-[(E)-(3-methyl-1,3-benzothiazol-2-ylidene)methyl]-1-phenylquinolin-1-ium-2-yl]-N-propylpropane-1,3-diamine], for which the “Percentage of cells stained” value in experiment [1] (setting [4]) was “Almost all”; in experiment [1] (setting [5]) it was “Almost all”; in experiment [1] (setting [6]) it was “Half”; in experiment [2] (setting [7]), “Half”; in experiment [2] (setting [8]), “Half”; in experiment [2] (setting [9]) it was “Almost all”. For the same compound, the “Percentage of cells stained” value is recorded as “Half” in experiment [3] (setting [10]), “Almost all” in experiment [3] (setting [11]), “Half” in experiment [3] (setting [12]) and “Almost all” in experiment [3] (setting [13]). Further, the Relative fluorescent intensity entry in experiment [1] (setting [4]), in experiment [1] (setting [5]), in experiment [1] (setting [6]), in experiment [2] (setting [7]), in experiment [2] (setting [8]) and in experiment [2] (setting [9]) was “Low” throughout. For the same compound, the Relative fluorescent intensity entry in experiment [3] (setting [10]), in experiment [3] (setting [11]), in experiment [3] (setting [12]) and in experiment [3] (setting [13]) was “Low” each time.
